Tests used:
[1] = test system: target transcript mRNA in A549 cells; test: Level of mRNA of target transcript in A549 cells by quantitative RT-PCR (Tables 12 and 13); type: cell-based, human; conditions: 24 h post-transfection; for mRNA knockdown of transporter gene target transcript, 0.1 nM: 0.1 nM siRNA; for mRNA knockdown of transporter gene target transcript, 1 nM: 1 nM siRNA; for mRNA knockdown of transporter gene target transcript, 10 nM: 10 nM siRNA
Summary of the method: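 Target mRNA was measured by SYBR Green quantitative RT-PCR using random-primed cDNA, normalised to HPRT and Lamin. Samples came from A549 cells 24 h post-transfection with 0.1, 1.0 or 10 nM siRNA.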

[2] = test system: A549 cells; test: Growth inhibition of siRNA-transfected A549 cells, SYBR Green I DNA content; type: cell-based, human; conditions: A549 cells, 10 nM siRNA, DNA content 96 hours after transfection, transporter gene targets
Summary of the method: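 Growth read-out: cellular DNA quantified with SYBR Green I (485/535 nm) 96 h after transfection, cells frozen, thawed and lysed in PBS/1% Triton X-100, pH 7. Cells (A549, 5×10^3 cells/cm^2) received 10 nM siRNA by RNAiMAX; non-specific siRNA served as control; triplicate wells averaged.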

| Substance | mRNA knockdown of transporter gene target transcript, 0.1 nM [1] | mRNA knockdown of transporter gene target transcript, 1 nM [1] | mRNA knockdown of transporter gene target transcript, 10 nM [1] | Growth Inhibition in A549 cells by 10 nM siRNA [2] |
| --- | --- | --- | --- | --- |
| SEQ ID NO: 4931: siRNA targeting SLC29A1 (ENT1) (chain 1 TTGAAGATGGCACTGAGAGAGTTCC; chain 2 UUGAAGAUGGCACUGAGAGAGUUCC; chemistry not given here; one strand in two spellings) | ++ (70-90% mRNA knockdown) | ++ (70-90% mRNA knockdown) | +++ (>90% mRNA knockdown) | ++ (inhibits by at least 75%) |
| SEQ ID NO: 4899: siRNA targeting SLC2A12 (GLUT12) (chain 1 TTAGCAAGGATGCTGAGGTCGTCTC; chain 2 UUAGCAAGGAUGCUGAGGUCGUCUC; Antisense strand given in DNA and RNA notation, chemistry not given here; one strand in two spellings) | ++ (70-90% mRNA knockdown) | ++ (70-90% mRNA knockdown) |  | − (no growth inhibition) |
| SEQ ID NO: 4895: siRNA targeting SLC2A5 (GLUT5) (chain 1 ATGTATGGCATCCAGGACACTGTGT; chain 2 AUGUAUGGCAUCCAGGACACUGUGU; Antisense strand given in DNA and RNA notation, chemistry not given here; one strand in two spellings) | ++ (70-90% mRNA knockdown) | ++ (70-90% mRNA knockdown) |  | − (no growth inhibition) |
| SEQ ID NO: 4916: siRNA targeting SLC23A2 (SVCT2) (chain 1 AATACTAGGAATATTGTCAGCATGG; chain 2 AAUACUAGGAAUAUUGUCAGCAUGG; Antisense strand given in DNA and RNA notation, chemistry not given here; one strand in two spellings) | ++ (70-90% mRNA knockdown) | ++ (70-90% mRNA knockdown) |  | − (no growth inhibition) |
| SEQ ID NO: 4955: siRNA targeting ATP6V1C1 (chain 1 TTGATTGGATATTTGGCCATGTCCC; chain 2 UUGAUUGGAUAUUUGGCCAUGUCCC; chemistry not given here; one strand in two spellings) | + (50-70% mRNA knockdown) | ++ (70-90% mRNA knockdown) |  | − (no growth inhibition) |
| SEQ ID NO: 4917: siRNA targeting SLC23A2 (SVCT2) (chain 1 AACAGCTGTAACTTGTACGCAGTCC; chain 2 AACAGCUGUAACUUGUACGCAGUCC; Antisense strand given in DNA and RNA notation, chemistry not given here; one strand in two spellings) | ++ (70-90% mRNA knockdown) | ++ (70-90% mRNA knockdown) |  | − (no growth inhibition) |
| SEQ ID NO: 4928: siRNA targeting SLC25A10 (DIC) (chain 1 AATAAAGCTGGCGACAAAGTGAGTG; chain 2 AAUAAAGCUGGCGACAAAGUGAGUG; chemistry not given here; one strand in two spellings) | ++ (70-90% mRNA knockdown) | ++ (70-90% mRNA knockdown) |  | ++ (inhibits by at least 75%) |
| SEQ ID NO: 4908: siRNA targeting SLC3A2 (4F2hc) (chain 1 AAGTTGAGCCGGCAAGAAGGAAGTC; chain 2 AAGUUGAGCCGGCAAGAAGGAAGUC; Antisense strand given in DNA and RNA notation, chemistry not given here; one strand in two spellings) | − (<50% mRNA knockdown) | + (50-70% mRNA knockdown) |  | ++ (inhibits by at least 75%) |
| SEQ ID NO: 4904: siRNA targeting SLC7A11 (xCT) (chain 1 AGATAAATCAGCCCAGCAACTGCCA; chain 2 AGAUAAAUCAGCCCAGCAACUGCCA; Antisense strand given in DNA and RNA notation, chemistry not given here; one strand in two spellings) | + (50-70% mRNA knockdown) | ++ (70-90% mRNA knockdown) |  | − (no growth inhibition) |
| SEQ ID NO: 4946: siRNA targeting ATP2B4 (PMCA4) (chain 1 AATATCACCAACCACAATCTCAGCC; chain 2 AAUAUCACCAACCACAAUCUCAGCC; chemistry not given here; one strand in two spellings) | ++ (70-90% mRNA knockdown) | ++ (70-90% mRNA knockdown) |  | − (no growth inhibition) |
| SEQ ID NO: 4933: siRNA targeting SLC29A1 (ENT1) (chain 1 TGGAGACTGAAACTCCAGATTCCTC; chain 2 UGGAGACUGAAACUCCAGAUUCCUC; chemistry not given here; one strand in two spellings) | − (<50% mRNA knockdown) | ++ (70-90% mRNA knockdown) | ++ (70-90% mRNA knockdown) | + (inhibits by at least 50%) |
| SEQ ID NO: 4909: siRNA targeting SLC3A2 (4F2hc) (chain 1 AAGAGCATCAGCTGGTAGAGTCGGA; chain 2 AAGAGCAUCAGCUGGUAGAGUCGGA; Antisense strand given in DNA and RNA notation, chemistry not given here; one strand in two spellings) | + (50-70% mRNA knockdown) | ++ (70-90% mRNA knockdown) |  | − (no growth inhibition) |
| SEQ ID NO: 4974: siRNA targeting ABCC5 (MRP5) (chain 1 AACCTCTTCCATTAGAAACAAACTC; chain 2 AACCUCUUCCAUUAGAAACAAACUC; chemistry not given here; one strand in two spellings) | − (<50% mRNA knockdown) | + (50-70% mRNA knockdown) |  | + (inhibits by at least 50%) |
| SEQ ID NO: 4961: siRNA targeting ATP6V1F (chain 1 ATGTCATCCCGGTTTAGAAATTGCC; chain 2 AUGUCAUCCCGGUUUAGAAAUUGCC; chemistry not given here; one strand in two spellings) | ++ (70-90% mRNA knockdown) | ++ (70-90% mRNA knockdown) |  | − (no growth inhibition) |
| SEQ ID NO: 4923: siRNA targeting SLC16A1 (MCT1) (chain 1 AAATAATTAGGACGACGCCACATGC; chain 2 AAAUAAUUAGGACGACGCCACAUGC; chemistry not given here; one strand in two spellings) | + (50-70% mRNA knockdown) | ++ (70-90% mRNA knockdown) | +++ (>90% mRNA knockdown) | − (no growth inhibition) |
| SEQ ID NO: 4966: siRNA targeting ATP7A (chain 1 ATAGCTCCCAATTTGAGGTACTTGG; chain 2 AUAGCUCCCAAUUUGAGGUACUUGG; chemistry not given here; one strand in two spellings) | − (<50% mRNA knockdown) | − (<50% mRNA knockdown) |  | − (no growth inhibition) |
| SEQ ID NO: 4972: siRNA targeting ABCC4 (MRP4) (chain 1 AAATAGTTAAGGTCGAGGGCTGTCC; chain 2 AAAUAGUUAAGGUCGAGGGCUGUCC; chemistry not given here; one strand in two spellings) | − (<50% mRNA knockdown) | ++ (70-90% mRNA knockdown) |  | − (no growth inhibition) |

— patent US20080145313A1, “Compositions and Methods for the Treatment and Prevention of Neoplastic Disorders” (Genesis Research & Development Corporation Limited, priority 2006, published 2008)
